Laboratory results taken from US9428759B2, “Methods for increasing the production of phenolic compounds from Theobroma cacao” (Casa Luker S.A., priority 2012, dated 2016).

Test system: cocoa callus
Experiment: Induction of cocoa callus development with 2,4-D and chitosan
Type: cell-based, Theobroma cacao
Text: After surface sterilization, seeds (grains) were subjected to induction of calluses in specific media for tissue cultures as follows (see Murashige, T. and Skoog, F. “A revised medium for rapid growth and bioassays with tobacco tissue cultures,” Physiologia Plantarum, 1962, Vol 15: 473-495). Disinfected cocoa seeds were submitted to extraction of embryonic cells under aseptic conditions, and transferred to growth medium (MS), which contains mineral salts and microelements, and which is enriched with myo-inositol (100 mg/L) and sucrose (30 g/L), with gellan gum (2.4 g/L) as a gelling agent. The cocoa explants were incubated under dark conditions for 7 days at 22-24° C. After the incubation period, the cocoa embryonic cells were subcultured in nutrient media with the same types of ingredients as the media mentioned above, but containing different concentrations of auxins (growth hormones 2,4-D), using […] (0, 0.1, 0.5, 1.0 and 2.0 mg/L). […]
Different concentrations including 0, 0.1, 0.2, 0.5, 1, 2, 4, mg/L of kinetin were evaluated. Also, kinetin was used with or without 2,4-D at concentration of 2 mg/L. The growth of calluses was evaluated after 100 days, and different parameters were used to determine the effects of the growth regulators on callus growth including % of disaggregation and height and diameter of the callus. […]

O=C(O)COc1ccc(Cl)cc1Cl [2,4 D, 2,4-dichlorophenoxyacetic acid]
growth in cocoa calluses (2 mg/L, all three cocoa phenotypes, early stages of development): induced larger growth
% of Callus Development (2,4-D 2 mgL^−1, initial callus development, three cocoa phenotypes): 22.9167%
